Data from PMC12305494, “Discovery of PXR Antagonist MI891 and PXR Degrader MI1013 and Their Roles in Hepatic Gene Regulation” (Journal of Medicinal Chemistry, 2025).

Columns and labels:
PXR-eGFP = molecular target: T1, PXR-eGFP (Homo sapiens, UniProt O75469); assay: Microscale thermophoresis (MST); format: binding; details: COS-1 cell lysate expressing PXR-eGFP
T1 construct: expressed in transfected cells; host or cells: COS-1 (lysate used)
Experimental: Microscale Thermophoresis (MST) experiments were conducted using the Monolith NT.115 (201810-BR-N006) (Blue/Red) instrument from NanoTemper Technologies GmbH, Germany. Cell lysates from COS-1 cells expressing PXR-eGFP served as the source of fluorescently labeled PXR, allowing the study of proteins in near-native conditions. COS-1 cells were transfected with 1000 ng of GFP-fused PXR (PXR-eGFP) using Lipofectamine 3000 and lysed 48 h post-transfection with RIPA buffer. To assess MI891 binding to PXR, cell lysates were diluted 2x with MST buffer (10 mM Na-phosphate buffer, pH 7.4, 1 mM MgCl2, 3 mM KCl, 150 mM NaCl, 0.05% Tween-20) to achieve optimal fluorescence levels. A titration series of MI891 (0–30 μM) was incubated with the diluted cell lysates. Measurements were taken in premium-coated capillaries (NanoTemper Technologies GmbH, MO-K025) using an LED source (Blue LED: Ex: 470(±10)/Em: 520(±10) nm) with an excitation wavelength of 470 nm and a 50% maximum stimulation time (MST). The excitation power was […]. Binding affinity was evaluated using the Hill model, with each data point representing mean fraction bound values from three independent experiments. The bound fraction of PXR-eGFP was determined, and fitting was performed using the Hill model method in MO Affinity Analysis v2.3 software (NanoTemper Technologies). […]

vitamin D receptor (VDR) = molecular target: T2, vitamin D receptor (VDR) (Homo sapiens, UniProt P11473); assay: VDR luciferase reporter assay, agonistic and antagonistic setups; format: cell-based; details: prototype ligand calcitriol
T2 construct: expressed in transfected cells
Experimental: For the farnesoid X receptor (FXR) luciferase gene reporter assay, the full-length expression vector was paired with pFXRE-luc luciferase construct. The p1A1-luc construct was used in the aryl hydrocarbon receptor (AhR) assays with pRL-TK for normalization. Gal4-LXR-α/β, and Gal4-PPAR-γ constructs were used with the pGAL4 UAS-luc construct. For the VDR assay, expression vector pSG5-hVDR together with pVDRE-luc constructs was used. Firefly and Renilla luciferase activities were analyzed using a Dual reporter assay (Promega). For the nuclear receptor assays, prototype ligands were used at the following concentrations: Calcitriol for VDR (100 nM), GW3965 for LXRα and LXRβ (10 μM), 6-OCA for FXR (1 μM), fenofibrate for PPARα (10 μM), estradiol for ERα and β (10 μM), rosiglitazone for PPARγ (10 μM), 3-MC for AhR (5 μM), and TCPOBOP for mCAR (10 μM). Detailed descriptions and protocols are detailed in our recent publication. ,

rodent PXRs = assay: Rodent PXR orthologue luciferase reporter assays; format: cell-based, rat/mouse; details: PCN as prototypical inducer
Experimental: The CYP3A4 gene promoter luciferase reporter construct (p3A4-luc) bears a distal XREM (−7836/–7208) and a proximal promoter sequence (prPXRE, −362/+53) from the CYP3A4 gene promoter region. […] The human PXR expression vector (variant 1, NM_003889.3) as well as vectors for mouse, rat, and monkey orthologues were described in our recent paper (39). […] Rhesus monkey, mouse, and rat PXR expression vectors (100 ng/well each) were also obtained from GenScript. […] Carlberg (University of Kuopio, Kuopio, Finland).
The cells were cultured in DMEM medium (Merck) supplemented with 10% fetal bovine serum.

PXR [1] = molecular target: T3, PXR (Homo sapiens, UniProt O75469+Q96SW2); assay: Western blot of PXR in differentiated HepaRG cells; format: cell-based
T3 construct: differentiated hepatic HepaRG cells, which naturally express high PXR activity and expression; endogenous in cells; host or cells: differentiated HepaRG
Experimental: The harvested HepaRG cells were lysed in RIPA lysis buffer (Cat. no 89900, Thermo Scientific) containing Halt protease inhibitor cocktail inhibitors (Thermo Scientific). Protein concentration was measured using the Pierce BCA Protein Assay Kit (Cat. no. 23225, Thermo Scientific), samples were diluted in 4 × Laemmli sample buffer (Cat. no. 1610747, BioRad) supplemented with mercaptoethanol and heated at 95 °C for 5 min. Equal amounts of protein were loaded in 4–20% Mini-PROTEAN TGX Stain-Free Protein Gels (12 well. cat. no. 4561095 or 15 well, cat. no. 4568096, Bio-Rad), electrophorised, and transferred onto Trans-Blot Turbo Midi-size PVDF Membrane (cat. no. 1704273, Bio-Rad), and blocked with EveryBlot Blocking buffer for 10 min (cat. no. 12010020, Bio-Rad). The membranes were incubated overnight at 4 °C with the following antibodies: PXR polyclonal antibody (1:500, PA5–41170, Invitrogen), RXRA polyclonal antibody (1:1000, 21218–1-AP, Proteintech), and GSPT1 polyclonal antibody (1:1000, 10763-a-AP, Proteintech), washed with TBS-T for 3 times, and followed by incubation with goat antirabbit IgG (H + L) Secondary antibody, HRP (1:200, 000, 1 h, cat. no. 31460, Invitrogen). Chemiluminescence signals were detected using SuperSignal West Femto Maximum Sensitivity Substrate (cat. no. 34096, Thermo Scientific) and visualized by the ChemiDoc MP Imaging system (Universal Hood III, #731BR02821, Bio-Rad), and the bands were quantified using β-actin (1:2000, recombinant rabbit conjugated monoclonal antibody (JF53-10), cat. no. MA5-32540, Invitrogen) as loading control with ImageJ (version 1.54g) software.

PXR [2] = molecular target: T4, PXR (Homo sapiens, UniProt O75469); details: HepG2, rifampicin 1 or 5 μM
T4 sequence (O75469 1-434): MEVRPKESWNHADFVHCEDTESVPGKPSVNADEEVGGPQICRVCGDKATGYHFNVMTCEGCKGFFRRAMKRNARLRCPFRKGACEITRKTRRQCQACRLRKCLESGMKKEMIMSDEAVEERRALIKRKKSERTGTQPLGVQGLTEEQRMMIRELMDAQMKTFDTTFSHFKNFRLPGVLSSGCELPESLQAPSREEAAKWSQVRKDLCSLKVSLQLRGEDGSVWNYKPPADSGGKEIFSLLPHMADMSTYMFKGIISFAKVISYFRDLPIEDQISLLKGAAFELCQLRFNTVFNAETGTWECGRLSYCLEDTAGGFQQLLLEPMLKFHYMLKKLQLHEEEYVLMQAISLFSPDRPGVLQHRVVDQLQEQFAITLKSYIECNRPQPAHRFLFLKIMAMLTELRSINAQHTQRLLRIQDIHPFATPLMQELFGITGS
Experimental: The PXR activity was assessed as the PXR-dependent transcriptional activation using the construct. […] The control vector pRL-TK (Promega) constitutively expresses Renilla luciferase. […] Transient transfection experiments followed published protocols used in our laboratory and described before. , Luciferase reporter assays were conducted to evaluate interactions with PXR or CAR and their variants in HepG2, or COS-1. Cells were seeded at a density of 40,000 cells/cm^2 in 48-well plates (ThermoFisher Scientific) and maintained at 37 °C in a humidified atmosphere with 5% CO2. […] Following seeding, HepG2 cells were transfected with 150 ng/well of a luciferase reporter construct and 100 ng/well of a nuclear receptor expression vector using Lipofectamine 3000 (ThermoFisher Scientific) and with pRL-TK (30 ng/well) serving as the normalization control. After 24 h, cells were treated with test compounds for 24 h before cell lysis and subsequent firefly and Renilla luciferase activity analysis using the Dual-Glo Luciferase Assay System (Promega). […] The activities of test compounds were normalized to the respective controls to determine % activation or inhibition.

T3 sequence (Q96SW2 whole entry, one chain of several): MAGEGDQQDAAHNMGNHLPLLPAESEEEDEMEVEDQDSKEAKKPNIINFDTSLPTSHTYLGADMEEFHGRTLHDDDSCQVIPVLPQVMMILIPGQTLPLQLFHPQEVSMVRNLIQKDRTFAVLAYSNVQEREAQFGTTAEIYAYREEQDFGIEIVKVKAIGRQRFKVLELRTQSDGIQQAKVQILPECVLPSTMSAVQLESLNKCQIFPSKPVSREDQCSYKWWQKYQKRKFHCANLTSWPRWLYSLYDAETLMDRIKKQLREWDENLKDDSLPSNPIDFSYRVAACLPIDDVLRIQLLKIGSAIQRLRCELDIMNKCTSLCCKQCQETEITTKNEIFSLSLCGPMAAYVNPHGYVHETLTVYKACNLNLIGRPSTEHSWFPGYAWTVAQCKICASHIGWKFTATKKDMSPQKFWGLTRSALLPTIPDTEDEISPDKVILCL
T2 sequence (P11473 whole entry): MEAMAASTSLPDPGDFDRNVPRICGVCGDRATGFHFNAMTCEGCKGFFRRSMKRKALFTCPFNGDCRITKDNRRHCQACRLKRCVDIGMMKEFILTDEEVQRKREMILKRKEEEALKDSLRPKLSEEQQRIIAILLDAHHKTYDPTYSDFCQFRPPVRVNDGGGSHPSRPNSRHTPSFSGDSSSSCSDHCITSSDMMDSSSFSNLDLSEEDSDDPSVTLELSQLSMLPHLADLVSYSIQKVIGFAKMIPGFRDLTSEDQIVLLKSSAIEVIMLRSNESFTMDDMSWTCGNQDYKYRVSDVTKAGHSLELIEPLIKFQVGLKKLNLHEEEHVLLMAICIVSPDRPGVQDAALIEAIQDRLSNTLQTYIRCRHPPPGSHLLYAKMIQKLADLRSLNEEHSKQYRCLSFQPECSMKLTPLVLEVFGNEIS

| Compound | Kd (PXR-eGFP) [nM] | agonistic or antagonistic activity on VDR (vitamin D receptor (VDR)) | activity on rodent PXRs (rodent PXRs) | PXR degradation, time course (PXR [1]; 2 μM, reversal of PXR expression after 72 h) | PXR degradation (Western blot) (PXR [1]; 24 h) | PXR degradation Dmax (PXR [1]; 24 h, Western blot) [%] | DC50 (PXR [1]; 24 h, Western blot, read-out: PXR degradation DC50) [nM] | inhibition of PXR activation by rifampicin (PXR [2]) |
| --- | --- | --- | --- | --- | --- | --- | --- | --- |
| NC(=O)c1cc(Cn2cc(-c3c(-c4ccc(Cl)cc4)nc4c(F)cc(F)cn34)nn2)ccc1Cl [Compound 11, 2-Chloro-5-((4-(2-(4-chlorophenyl)-6,8-difluoroimidazo[1,2-a]pyridin-3-yl)-1H-1,2,3-triazol-1-yl)methyl)-benzamide] | 1700 | no significant agonistic or antagonistic activities | no activities |  |  |  |  |  |
| N-(4-((1-(2,5-dimethoxyphenyl)-5-methyl-1H-1,2,3-triazol-4-yl)sulfonyl)phenyl)-3-(2-(2-(2-(4-(((2-(2,6-dioxopiperidin-3-yl)-1,3-dioxoisoindolin-4-yl)amino)methyl)-1H-1,2,3-triazol-1-yl)ethoxy)ethoxy)ethoxy)propenamide [Compound 36] |  |  |  | significant degradation of PXR after 12 h | selectively degrades PXR | 82 | 89 | concentration-dependent inhibition of PXR activation by rifampicin |
